# Laboratory results: PMC8921064 (Archives of Toxicology, 2022)
# Where two headings read alike, the source gives them in different places.
# Experiments:
# [1] = test system: Salmonella typhimurium TA98; assay: Reverse mutation assay (Ames test), TA98; settings: for Increase in the number of revertants compared to the concurrent solvent control: TA98, presence of 5% S9-mix, 10–100 µg; for Mutagenicity (conclusion): TA98, positive if more than threefold over control
# Method: Six concentrations of each compound were tested in triplicate in the absence and presence of 5% (v/v) S9-mix prepared from the livers of Aroclor 1254 treated Sprague–Dawley rats. The S9-mix contained 4 mM NADP, 5.8 mM glucose-6-phosphate, 0.1 M sodium phosphate pH 7.4, 8 mM MgCl2, 33 mM KCl and 5% S9 homogenate. Fresh bacterial cultures were prepared overnight to reach 10^9 cells/ml. The following solutions were pre-incubated in a rotating incubator at 70 rpm and 37 °C, and contained either 0.5 ml S9-mix (in case of S9 presence) or 0.5 ml 0.1 M potassium phosphate pH 7.4 (in case of S9 absence), 0.1 ml of a fresh bacterial culture (10^9 cells/ml) of TA98 or TA100, […] Top agar was melted and heated to 45 °C. After preincubation, the substrate solutions were added to 3 ml of the molten top agar and mixed by vortexing and the top agar mixture was poured onto a minimal glucose agar plate. After solidification of the top agar, the plates were incubated at 37 °C for 48 h. The number of revertant colonies per plate was automatically counted with the Instem Sorcerer Colony Counter (Staffordshire, UK). In the absence of S9-mix, 2-nitrofluorene (NF) and methylmethanesulfonate (MMS) were tested as positive controls for incubations with TA98 and TA100, respectively. In the presence of S9-mix, 2-aminoanthracene (2AA) was tested as a positive control in both TA98 and TA100. DMSO was tested as a solvent control in both tester strains.
# [2] = test system: rat liver microsomes (RLM); assay: Rat liver microsomal incubation, metabolite formation quantified by UPLC; settings: RLM
# Method: (§1) The incubation mixtures were prepared and incubated in glass vials to avoid plastic binding of the substrates. The glass vials were capped to prevent substrate loss due to volatility. After preincubation of the incubation mixture at 37 °C for 1 min, the enzymatic reaction was initiated by adding microsomes to the incubation mixture which was subsequently incubated at 37 °C for 20 min. The reaction was terminated by adding 100 µl ice-cold acetonitrile followed by vortexing. After 5 min centrifugation at 5000 rpm (4000 × g), 4 °C, the supernatant was collected for ultraperformance liquid chromatography (UPLC) analysis. […] Therefore, a diisopropylether (DIPE) extraction of the metabolites was performed after the reaction was stopped by the addition of 20 µl 10% HClO4. To this end, the incubation mixture (total volume of 220 µl) was extracted three times with 1 ml DIPE. Each time, the upper organic layer was collected and the DIPE was subsequently evaporated from the combined organic fractions with a gentle stream of nitrogen. The residues were dissolved in 100 µl methanol and analyzed by UPLC.
# (§2) The metabolites formed were analyzed and quantified using an Acquity UPLC system equipped with a photodiode array (PDA) detector (Waters, Milford, MA). The metabolites and their parent compound were separated on a reverse phase Acquity UPLC® BEH C18 column ([…], 1.7 µm, Waters, Milford, MA) and detected at wavelengths ranging from 190 to 400 nm. Eluent A was nano-pure water containing 0.1% trifluoroacetic acid (v/v), and eluent B was acetonitrile containing 0.1% trifluoroacetic acid (v/v). The gradient elution started from 90% A and 10% B applied from 0.0 min to 0.5 min, which was changed to 0% A and 100% B from 0.5 to 15.5 min and then kept at 0% A and 100% B from 15.5 min to 18.5 min, changed back to 90% A and 10% B from 18.5 to 18.6 min and then maintained at the starting conditions from 18.6 min until 22 min. The total run time was 22 min using a flow rate of 0.6 ml/min. The temperature of the column was set at 40 °C and that of the autosampler at 10 °C during the UPLC analysis. The injection volume was 3.5 µl. Metabolites were quantified using their peak area at the wavelength specified in Table 1, using calibration curves of available reference compounds. Metabolites were identified by comparing their retention time (RT) and UV spectrum to those of reference chemicals on UPLC. When reference chemicals were not available, metabolite identification by gas chromatography-triple quadrupole mass spectrometry (GC–MS/MS) was performed. The minor metabolites were identified by elution time and mass spectra both on UPLC and GC–MS/MS, and by comparison with available elution and spectral information from the literature.
# (§3) The metabolite concentrations in the microsomal incubation mixtures as quantified by UPLC were used to calculate the rate of the enzymatic conversions in pmol/min/mg microsomal protein. The kinetic parameters KM and Vmax were obtained using a nonlinear regression curve fit applying the Michaelis Menten equation in GraphPad Prism 5 (San Diego, USA). To compare the catalytic efficiency of formation of the different metabolites the intrinsic clearance (Clint) was calculated as Vmax divided by KM.
# [3] = as above; settings: Sprague-Dawley, rat, microsomes, pH 7.4
# Method: as §1, §2, §3
# [4] = Human liver microsomal incubation, metabolite formation quantified by UPLC; settings: human, microsomes, pH 7.4
# Method: as §1, §2, §3
# [5] = test system: human liver microsomes (HLM); assay: as above; settings: HLM
# Method: as §1, §2, §3
# S. typhimurium TA98 = settings: cited from earlier work
# S. typhimurium TA100 = settings: cited from earlier work
# [6] = test system: Chinese hamster bone marrow cells; design: method as in Bayer [1978]; settings: in vivo exposure; ref Bayer [1978]; cited from earlier work
# mouse skin = test system: mouse skin; design: method as in Buening et al. [1979]; LaVoie et al. [1981]; settings: mouse skin painting; ref Buening et al. [1979]; LaVoie et al. [1981]; cited from earlier work
# [7] = test system: Salmonella typhimurium TA100; assay: Reverse mutation assay (Ames test), TA100; settings: for Increase in the number of revertants compared to the concurrent solvent control: TA100, presence of 5% S9-mix, 10–100 µg; for Mutagenicity (conclusion): TA100, positive if more than twofold over control
# Method: Six concentrations of each compound were tested in triplicate in the absence and presence of 5% (v/v) S9-mix prepared from the livers of Aroclor 1254 treated Sprague–Dawley rats. The S9-mix contained 4 mM NADP, 5.8 mM glucose-6-phosphate, 0.1 M sodium phosphate pH 7.4, 8 mM MgCl2, 33 mM KCl and 5% S9 homogenate. Fresh bacterial cultures were prepared overnight to reach 10^9 cells/ml. The following solutions were pre-incubated in a rotating incubator at 70 rpm and 37 °C, and contained either 0.5 ml S9-mix (in case of S9 presence) or 0.5 ml 0.1 M potassium phosphate pH 7.4 (in case of S9 absence), 0.1 ml of a fresh bacterial culture (10^9 cells/ml) of TA98 or TA100, and 10–100 µg test compound. Top agar was melted and heated to 45 °C. After preincubation, the substrate solutions were added to 3 ml of the molten top agar and mixed by vortexing and the top agar mixture was poured onto a minimal glucose agar plate. After solidification of the top agar, the plates were incubated at 37 °C for 48 h. The number of revertant colonies per plate was automatically counted with the Instem Sorcerer Colony Counter (Staffordshire, UK). In the absence of S9-mix, 2-nitrofluorene (NF) and methylmethanesulfonate (MMS) were tested as positive controls for incubations with TA98 and TA100, respectively. In the presence of S9-mix, 2-aminoanthracene (2AA) was tested as a positive control in both TA98 and TA100. DMSO was tested as a solvent control in both tester strains.
# [8] = ref Bucker et al. [1979], Wood et al. [1979]
# [9] = ref Katarzyna Rudnicka et al. [2013]
structure (smiles),measurement,setting,value
c1ccc2c(c1)ccc1ccccc12 [Phenanthrene],Increase in the number of revertants compared to the concurrent solvent control,[1],No increases in the number of revertants were observed
same,Mutagenicity (conclusion),[1],tested negative for mutagenicity
same,"Vmax, formation of 1,2-Dihydro-phenanthrene-diol RT = 3.57 min",[2]; substrate Phenanthrene,79.3 ± 6.5 pmol/min/mg microsomal protein
same,"Vmax, formation of 1-Phenanthrol RT = 6.31 min",[2]; substrate Phenanthrene,123.9 ± 19.2 pmol/min/mg microsomal protein
same,"Vmax, formation of 3,4-Dihydro-phenanthrene-diol RT = 2.13 min",[2]; substrate Phenanthrene,10.3 ± 1.8 pmol/min/mg microsomal protein
same,"Vmax, formation of 3-Phenanthrol RT = 6.02 min",[2]; substrate Phenanthrene,21.3 ± 2.0 pmol/min/mg microsomal protein
same,"Vmax, formation of 4-Phenanthrol RT = 6.55 min",[2]; substrate Phenanthrene,24.5 ± 5.5 pmol/min/mg microsomal protein
same,"Vmax, formation of 9,10-Dihydro-phenanthene-diol RT = 3.28 min",[2]; substrate Phenanthrene,9.8 ± 0.6 pmol/min/mg microsomal protein
same,"Vmax, formation of 9,10-Dihydro-phenanthene-diol RT = 3.38 min",[2]; substrate Phenanthrene,529.2 ± 43.2 pmol/min/mg microsomal protein
same,microsomal CLint,[3],7.3 µL/min/mg
same,microsomal CLint,[4],24.2 µL/min/mg
same,"Vmax, formation of 1,2-Dihydro-phenanthrene-diol RT = 3.57 min",[5]; substrate Phenanthrene,152.5 ± 14.4 pmol/min/mg microsomal protein
same,"Vmax, formation of 1-Phenanthrol RT = 6.31 min",[5]; substrate Phenanthrene,125.2 ± 5.4 pmol/min/mg microsomal protein
same,"Vmax, formation of 3,4-Dihydro-phenanthrene-diol RT = 2.13 min",[5]; substrate Phenanthrene,61.5 ± 6.3 pmol/min/mg microsomal protein
same,"Vmax, formation of 3,4-Dihydro-phenanthrene-diol RT = 2.24 min",[5]; substrate Phenanthrene,6.0 ± 0.3 pmol/min/mg microsomal protein
same,"Vmax, formation of 4-Phenanthrol RT = 6.55 min",[5]; substrate Phenanthrene,18.0 ± 3.9 pmol/min/mg microsomal protein
same,"Vmax, formation of 9,10-Dihydro-phenanthene-diol RT = 3.38 min",[5]; substrate Phenanthrene,287.8 ± 17.1 pmol/min/mg microsomal protein
same,Mutagenicity,S. typhimurium TA98; [8],Neither phenanthrene nor its dihydrodiol metabolites were found to be mutagenic
same,Mutagenicity,S. typhimurium TA100; [8],Neither phenanthrene nor its dihydrodiol metabolites were found to be mutagenic
same,DNA adducts,[6],no phenanthrene DNA adducts could be detected
same,Tumor-initiating activity,mouse skin,neither phenanthrene nor its monomethylated analogs
same,Increase in the number of revertants compared to the concurrent solvent control,[7],No increases in the number of revertants were observed
same,Mutagenicity (conclusion),[7],tested negative for mutagenicity
Cc1cccc2c1ccc1ccccc12 [1-Methylphenanthrene],Increase in the number of revertants compared to the concurrent solvent control,[1],up to 13 fold
same,Mutagenicity (conclusion),[1],showed mutagenicity
same,"Vmax, formation of 1-(Hydroxymethyl) phennathrene RT = 5.55 min",[2]; substrate 1-Methylphenanthrene,1926 ± 40.3 pmol/min/mg microsomal protein
same,"Vmax, formation of 1-Methylphenanthrol RT = 6.80 min",[2]; substrate 1-Methylphenanthrene,33.1 ± 2.1 pmol/min/mg microsomal protein
same,"Vmax, formation of 1-Methylphenanthrol RT = 6.92 min",[2]; substrate 1-Methylphenanthrene,24.0 ± 1.6 pmol/min/mg microsomal protein
same,"Vmax, formation of 1-Methylphenanthrol RT = 7.00 min",[2]; substrate 1-Methylphenanthrene,17.3 ± 1.2 pmol/min/mg microsomal protein
same,"Vmax, formation of 1-Methylphenanthrol RT = 7.29 min",[2]; substrate 1-Methylphenanthrene,9.0 ± 0.8 pmol/min/mg microsomal protein
same,"Vmax, formation of Dihydro-1-methylphenanthrene-diol RT = 3.43 min",[2]; substrate 1-Methylphenanthrene,4.2 ± 0.4 pmol/min/mg microsomal protein
same,"Vmax, formation of Dihydro-1-methylphenanthrene-diol RT = 3.96 min",[2]; substrate 1-Methylphenanthrene,5.2 ± 0.3 pmol/min/mg microsomal protein
same,"Vmax, formation of Dihydro-1-methylphenanthrene-diol RT = 4.35 min",[2]; substrate 1-Methylphenanthrene,16.1 ± 1.3 pmol/min/mg microsomal protein
same,"Vmax, formation of Dihydro-1-methylphenanthrene-diol RT = 4.76 min",[2]; substrate 1-Methylphenanthrene,14.0 ± 0.6 pmol/min/mg microsomal protein
same,"Vmax, formation of 1-(Hydroxymethyl) phennathrene RT = 5.55 min",[5]; substrate 1-Methylphenanthrene,475.3 ± 13.2 pmol/min/mg microsomal protein
same,"Vmax, formation of 1-Methylphenanthrol RT = 6.3 min",[5]; substrate 1-Methylphenanthrene,14.7 ± 0.8 pmol/min/mg microsomal protein
same,"Vmax, formation of 1-Methylphenanthrol RT = 6.80 min",[5]; substrate 1-Methylphenanthrene,77.3 ± 3.9 pmol/min/mg microsomal protein
same,"Vmax, formation of Dihydro-1-methylphenanthrene-diol RT = 2.32 min",[5]; substrate 1-Methylphenanthrene,27.5 ± 4.6 pmol/min/mg microsomal protein
same,"Vmax, formation of Dihydro-1-methylphenanthrene-diol RT = 4.35 min",[5]; substrate 1-Methylphenanthrene,20.6 ± 0.5 pmol/min/mg microsomal protein
same,Increase in revertants,S. typhimurium TA98; [9],8.4 fold
same,Increase in revertants,S. typhimurium TA98; ref LaVoie et al. [1983],3.2 fold
same,Increase in revertants,S. typhimurium TA100; [9],4.1 fold
same,Increase in revertants,S. typhimurium TA100; ref LaVoie et al. [1983],6.0 fold
same,Tumor-initiating activity,mouse skin,neither phenanthrene nor its monomethylated analogs
same,Increase in the number of revertants compared to the concurrent solvent control,[7],≤ 6.8 fold
same,Mutagenicity (conclusion),[7],showed mutagenicity
